{"source": "patent US9409908B2", "about": "(priority 2012, dated 2016)", "key": {"[1]": {"biological_target": "purified human plasma kallikrein (Homo sapiens (Human), UniProt P03952)", "sequence (P03952 whole entry, looked up)": "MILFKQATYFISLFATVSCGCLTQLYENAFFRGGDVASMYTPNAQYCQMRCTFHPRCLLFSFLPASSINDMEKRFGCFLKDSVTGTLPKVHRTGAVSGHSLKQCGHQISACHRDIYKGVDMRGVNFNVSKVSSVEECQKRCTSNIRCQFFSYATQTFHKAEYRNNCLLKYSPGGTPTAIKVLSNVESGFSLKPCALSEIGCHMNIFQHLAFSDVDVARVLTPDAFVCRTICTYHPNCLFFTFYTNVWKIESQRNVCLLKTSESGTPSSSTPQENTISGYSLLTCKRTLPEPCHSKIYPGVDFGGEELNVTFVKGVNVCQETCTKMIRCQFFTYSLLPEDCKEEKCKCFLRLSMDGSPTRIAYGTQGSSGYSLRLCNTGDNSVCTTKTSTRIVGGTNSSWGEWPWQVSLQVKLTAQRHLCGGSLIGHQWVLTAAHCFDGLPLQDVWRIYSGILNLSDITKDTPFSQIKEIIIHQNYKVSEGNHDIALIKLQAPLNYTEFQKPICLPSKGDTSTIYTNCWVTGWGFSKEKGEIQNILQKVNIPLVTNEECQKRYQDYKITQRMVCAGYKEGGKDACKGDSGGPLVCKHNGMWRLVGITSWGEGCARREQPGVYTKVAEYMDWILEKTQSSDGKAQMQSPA", "sequence (P03952 whole entry partner, looked up)": "as the sequence (P03952 whole entry, looked up) above", "test": "biochemical", "format": "biochemical", "details": "read-out: Plasma Kallikrein Ki"}, "[2]": {"biological_target": "purified human Factor XIa (Homo sapiens (Human), UniProt P03951)", "sequence (P03951 whole entry, looked up)": "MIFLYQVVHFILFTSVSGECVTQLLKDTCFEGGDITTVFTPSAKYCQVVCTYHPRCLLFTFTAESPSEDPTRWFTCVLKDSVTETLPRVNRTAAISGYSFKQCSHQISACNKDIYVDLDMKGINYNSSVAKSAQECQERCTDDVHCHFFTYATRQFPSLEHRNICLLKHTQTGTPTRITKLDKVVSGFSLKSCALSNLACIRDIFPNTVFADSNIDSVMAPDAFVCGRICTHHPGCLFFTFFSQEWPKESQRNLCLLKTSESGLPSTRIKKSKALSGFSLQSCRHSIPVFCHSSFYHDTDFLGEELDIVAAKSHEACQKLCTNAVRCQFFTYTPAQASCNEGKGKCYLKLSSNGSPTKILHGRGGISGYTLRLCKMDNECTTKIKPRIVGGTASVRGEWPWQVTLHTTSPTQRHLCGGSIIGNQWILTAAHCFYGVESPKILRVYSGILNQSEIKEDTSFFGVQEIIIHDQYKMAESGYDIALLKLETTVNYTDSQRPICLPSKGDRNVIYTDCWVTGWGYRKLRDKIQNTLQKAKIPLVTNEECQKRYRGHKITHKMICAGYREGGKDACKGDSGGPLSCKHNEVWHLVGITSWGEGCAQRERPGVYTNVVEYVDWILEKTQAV", "sequence (P03951 whole entry partner, looked up)": "as the sequence (P03951 whole entry, looked up) above", "test": "biochemical", "format": "biochemical", "details": "read-out: Factor XIa Ki"}}, "note": "pKi: −log10 of the molar value. Where a name gives a salt, the structure may show the parent alone.", "data": [{"compound": "C[C@@H]1CCC[C@H](N2CCC(c3c(F)ccc(C#N)c3F)=CC2=O)c2cc(ccn2)-c2cc(C#N)ccc2NC1=O", "note": "[Example 139, (10R,14S)-14-[4-(3-cyano-2,6-difluorophenyl)-6-oxo-1,2,3,6-tetrahydropyridin-1-yl]-10-methyl-9-oxo-8,16-diazatricyclo[13.3.1.0^2,7]nonadeca-1(19),2(7),3,5,15,17-hexaene-4-carbonitrile]", "values": [{"measurement": "pKi", "setting": "[1]", "result": 5.22}, {"measurement": "pKi", "setting": "[2]", "result": "< 6.39"}]}, {"compound": "C[C@@H]1CCC[C@H](N2CCC(c3c(F)ccc(Cl)c3F)=CC2=O)c2cc(ccn2)-c2ccc(NC3O[C@@H](CO)[C@H](O)[C@@H](O)[C@@H]3O)cc2NC1=O", "note": "(stereo partly drawn) [Example 131]", "values": [{"measurement": "pKi", "setting": "[1]", "result": 7.68}, {"measurement": "pKi", "setting": "[2]", "result": 8.14}]}, {"compound": "COC(=O)Nc1ccc2c(c1)NC(=O)[C@H](C)CCC[C@H](N1CCC(c3c(OC(F)F)ccc(Cl)c3F)=CC1=O)c1cc-2ccn1", "note": "[Example 32, Methyl N-[(10R,14S)-14-{4-[3-chloro-6-(difluoromethoxy)-2-fluorophenyl]-6-oxo-1,2,3,6-tetrahydropyridin-1-yl}-10-methyl-9-oxo-8,16-diazatricyclo[13.3.1.0^2,7]nonadeca-1(19),2,4,6,15,17-hexaen-5-yl]carbamate, TFA salt]", "values": [{"measurement": "pKi", "setting": "[1]", "result": 8.22}, {"measurement": "pKi", "setting": "[2]", "result": 10.22}]}, {"compound": "C[C@@H]1CCC[C@H](N2CCC(c3c(F)ccc(Cl)c3F)=CC2=O)c2cc(ccn2)-c2ccc(CO)cc2NC1=O", "note": "[Example 149, (10R,14S)-14-[4-(3-chloro-2,6-difluorophenyl)-6-oxo-1,2,3,6-tetrahydropyridin-1-yl]-5-(hydroxymethyl)-10-methyl-8,16-diazatricyclo[13.3.1.0^2,7]nonadeca-1(19),2(7),3,5,15,17-hexaen-9-one]", "values": [{"measurement": "pKi", "setting": "[1]", "result": 7.65}, {"measurement": "pKi", "setting": "[2]", "result": 7.76}]}, {"compound": "C[C@@H]1CCC[C@H](N2CCC(c3c(Br)ccc(Cl)c3F)=CC2=O)c2cc(ccn2)-c2ccc(C(N)=O)cc2NC1=O", "note": "[Example 29, (14S)-14-[4-(6-Bromo-3-chloro-2-fluorophenyl)-6-oxo-1,2,3,6-tetrahydropyridin-1-yl]-10-methyl-9-oxo-8,16-diazatricyclo[13.3.1.0^2,7]nonadeca-1(19),2(7),3,5,15,17-hexaene-5-carboxamide, TFA salt]", "values": [{"measurement": "pKi", "setting": "[1]", "result": 8.52}, {"measurement": "pKi", "setting": "[2]", "result": 8.54}]}, {"compound": "CC1CCC[C@H](N2CCC(c3c(F)ccc(Cl)c3F)=CC2=O)c2cc(ccn2)-c2ccc(C(=O)O)cc2NC1=O", "note": "(stereo partly drawn) [Example 105, (14S)-14-[4-(3-Chloro-2,6-difluorophenyl)-6-oxo-1,2,3,6-tetrahydropyridin-1-yl]-10-methyl-9-oxo-8,16-diazatricyclo[13.3.1.0^2,7]nonadeca-1(18),2,4,6,15(19),16-hexaene-5-carboxylic acid, TFA salt]", "values": [{"measurement": "pKi", "setting": "[1]", "result": 5.41}, {"measurement": "pKi", "setting": "[2]", "result": "< 6.47"}]}, {"compound": "C[C@@H]1CCC[C@H](N2CCC(c3c(Br)ccc(Cl)c3F)=CC2=O)c2cc(ccn2)-c2cc(F)ccc2NC1=O", "note": "[Example 147, (10R,14S)-14-[4-(6-bromo-3-chloro-2-fluorophenyl)-6-oxo-1,2,3,6-tetrahydropyridin-1-yl]-4-fluoro-10-methyl-8,16-diazatricyclo[13.3.1.0^2,7]nonadeca-1(19),2(7),3,5,15,17-hexaen-9-one]", "values": [{"measurement": "pKi", "setting": "[1]", "result": 8.12}, {"measurement": "pKi", "setting": "[2]", "result": 8.44}]}, {"compound": "COC(=O)Nc1ccc2c(c1)NC(=O)[C@H](C)CCC[C@H](N1CCC(c3c(F)cccc3C#N)=CC1=O)c1cc-2ccn1", "note": "[Example 4, Methyl N-[(10R,14S)-14-[4-(2-cyano-6-fluorophenyl)-6-oxo-1,2,3,6-tetrahydropyridin-1-yl]-10-methyl-9-oxo-8,16-diazatricyclo[13.3.1.0^2,7]nonadeca-1(19),2,4,6,15,17-hexaen-5-yl]carbamate, TFA salt]", "values": [{"measurement": "pKi", "setting": "[1]", "result": 9.00}, {"measurement": "pKi", "setting": "[2]", "result": 8.58}]}, {"compound": "COC(=O)Nc1ccc2c(c1)NC(=O)[C@H](C)CCC[C@H](N1CCC(c3cccc(C)c3C)=CC1=O)c1cc-2ccn1", "note": "[Example 114, Methyl-N-[(10R,14S)-14-[4-(2,3-dimethylphenyl)-6-oxo-1,2,3,6-tetrahydropyridin-1-yl]-10-methyl-9-oxo-8,16-diazatricyclo[13.3.1.0^2,7]nonadeca-1(18),2,4,6,15(19),16-hexaen-5-yl]carbamate]", "values": [{"measurement": "pKi", "setting": "[1]", "result": 6.84}, {"measurement": "pKi", "setting": "[2]", "result": 6.97}]}, {"compound": "C[C@@H]1CCC[C@H](N2CCC(c3c(F)ccc(Cl)c3F)=CC2=O)c2cc(ccn2)-c2ccc(NC3O[C@H](C(=O)O)[C@@H](O)[C@H](O)[C@H]3O)cc2NC1=O", "note": "(stereo partly drawn) [Example 128, (2S,3S,4S,5R)-6-{[(10R,14S)-14-[4-(3-chloro-2,6-difluorophenyl)-6-oxo-1,2,3,6-tetrahydropyridin-1-yl]-10-methyl-9-oxo-8,16-diazatricyclo[13.3.1.0^2,7]nonadeca-1(19),2,4,6,15,17-hexaen-5-yl]amino}-3,4,5-trihydroxyoxane-2-carboxylic acid]", "values": [{"measurement": "pKi", "setting": "[1]", "result": 7.59}, {"measurement": "pKi", "setting": "[2]", "result": 7.99}]}, {"compound": "COC(=O)Nc1ccc2c(c1)NC(=O)[C@H](C)CCC[C@H](N1CCC(c3c(Br)ccc(Cl)c3F)=CC1=O)c1cccc-2c1", "note": "[Example 161, Methyl N-[(10R,14S)-14-[4-(6-bromo-3-chloro-2-fluorophenyl)-6-oxo-1,2,3,6-tetrahydropyridin-1-yl]-10-methyl-9-oxo-8-azatricyclo[13.3.1.0^2,7]nonadeca-1(19),2,4,6,15,17-hexaen-5-yl]carbamate]", "values": [{"measurement": "pKi", "setting": "[1]", "result": 7.67}, {"measurement": "pKi", "setting": "[2]", "result": 9.23}]}, {"compound": "COC(=O)Nc1ccc2c(c1)C(=O)NCCCC[C@H](N1CCC(c3c(F)ccc(Cl)c3F)=CC1=O)c1cc-2ccn1", "note": "[Example 24, Methyl N-[(14S)-14-[4-(3-chloro-2,6-difluorophenyl)-6-oxo-1,2,3,6-tetrahydropyridin-1-yl]-8-oxo-9,16-diazatricyclo[13.3.1.0^2,7]nonadeca-1(19),2(7),3,5,15,17-hexaen-5-yl]carbamate, TFA salt]", "values": [{"measurement": "pKi", "setting": "[1]", "result": 6.67}, {"measurement": "pKi", "setting": "[2]", "result": 6.57}]}, {"compound": "C[C@@H]1CCC[C@H](N2CCC(c3c(F)ccc(Cl)c3F)=CC2=O)c2cc(ccn2)-c2ccc(NC(=O)OCCO)cc2NC1=O", "note": "[Example 54, 2-Hydroxyethyl N-[(10R,14S)-14-[4-(3-chloro-2,6-difluorophenyl)-6-oxo-1,2,3,6-tetrahydropyridin-1-yl]-10-methyl-9-oxo-8,16-diazatricyclo[13.3.1.0^2,7]nonadeca-1(19),2,4,6,15,17-hexaen-5-yl]carbamate, TFA salt]", "values": [{"measurement": "pKi", "setting": "[1]", "result": 9.00}, {"measurement": "pKi", "setting": "[2]", "result": 10.10}]}, {"compound": "COC(=O)Nc1ccc2c(c1)NC(=O)[C@H](C)CCC[C@H](N1CCC(c3c(F)ccc(Cl)c3F)=C(C)C1=O)c1cc-2ccn1", "note": "[Example 64, Methyl N-[(10R,14S)-14-[4-(3-chloro-2,6-difluorophenyl)-5-methyl-6-oxo-1,2,3,6-tetrahydropyridin-1-yl]-10-methyl-9-oxo-8,16-diazatricyclo[13.3.1.0^2,7]nonadeca-1(19),2,4,6,15,17-hexaen-5-yl]carbamate, TFA salt]", "values": [{"measurement": "pKi", "setting": "[1]", "result": 6.77}, {"measurement": "pKi", "setting": "[2]", "result": 7.78}]}, {"compound": "COC(=O)Nc1ccc2c(c1)NC(=O)[C@H](C)CCC[C@H](N1CCC(c3cncc(Cl)c3)=CC1=O)c1cc-2ccn1", "note": "[Example 99, Methyl N-[(10R,14S)-14-[4-(5-chloropyridin-3-yl)-6-oxo-1,2,3,6-tetrahydropyridin-1-yl]-10-methyl-9-oxo-8,16-diazatricyclo[13.3.1.0^2,7]nonadeca-1(19),2,4,6,15,17-hexaen-5-yl]carbamate, his TFA salt]", "values": [{"measurement": "pKi", "setting": "[1]", "result": 5.62}, {"measurement": "pKi", "setting": "[2]", "result": 6.90}]}]}
